How the values were obtained:
[1] = Terminal half life in iv dosed rat; assay type: ADME, organism-based; conditions: in vivo, read-out: beta t1/2
[2] = Total clearance in iv dosed rat; assay type: ADME, organism-based; conditions: in vivo
[3] = target: T1, Bile acid receptor (Homo sapiens) (UniProt Q96RI1); experiment: Agonist activity at human FXR transfected in african green monkey CV1 cells by luciferase reporter gene transient transfection assay relative to GW-4064; assay type: functional, cell-based; conditions: CV-1
T1 sequence (whole entry): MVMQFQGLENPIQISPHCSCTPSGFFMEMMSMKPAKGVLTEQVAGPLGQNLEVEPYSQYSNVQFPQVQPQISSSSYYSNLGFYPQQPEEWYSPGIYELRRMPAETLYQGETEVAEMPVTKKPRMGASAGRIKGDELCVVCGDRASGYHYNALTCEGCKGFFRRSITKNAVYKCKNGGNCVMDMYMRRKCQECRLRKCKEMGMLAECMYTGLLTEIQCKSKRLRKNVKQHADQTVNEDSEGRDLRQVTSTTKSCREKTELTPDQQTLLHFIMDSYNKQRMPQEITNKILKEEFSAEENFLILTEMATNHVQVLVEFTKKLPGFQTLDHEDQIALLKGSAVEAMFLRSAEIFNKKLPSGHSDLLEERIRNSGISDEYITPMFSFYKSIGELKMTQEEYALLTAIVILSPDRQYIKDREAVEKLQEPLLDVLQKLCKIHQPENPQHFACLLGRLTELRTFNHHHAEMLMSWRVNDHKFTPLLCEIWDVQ

Bile acid receptor [4] = target: T2, Bile acid receptor (Homo sapiens, UniProt Q96RI1); experiment: Agonist activity at human FXR assessed as SRC1 peptide interaction with receptor ligand binding domain by FRET assay
T2 sequence (Q96RI1 whole entry): T1 sequence (whole entry)

Bile acid receptor [5] = target: T2, Bile acid receptor; experiment: Agonist activity at human FXR assessed as SRC1 coactivator peptide recruitment by cell free FRET assay; assay type: functional
[6] = Oral bioavailability in rat; assay type: ADME, organism-based; conditions: in vivo
[7] = Volume of distribution at steady state in iv dosed rat; assay type: ADME, organism-based; conditions: in vivo, read-out: Vdss
[8] = target: T1, Bile acid receptor (Homo sapiens); experiment: Agonist activity at human FXR assessed as SRC1 peptide interaction with receptor ligand binding domain by FRET assay relative to GW-4064
Bile acid receptor [9] = target: T2, Bile acid receptor; experiment: Agonist activity at human FXR transfected in african green monkey CV1 cells by luciferase reporter gene transient transfection assay; assay type: functional, cell-based, CV-1
[10] = Selectivity ratio of XC50 for PXR to EC50 for human FXR
[11] = target: T3, Nuclear receptor ROR-alpha (Homo sapiens, UniProt P35398); experiment: Activity at RORalpha assessed as coactivator peptide interaction with receptor ligand binding domain by FRET assay
T3 sequence (P35398 whole entry): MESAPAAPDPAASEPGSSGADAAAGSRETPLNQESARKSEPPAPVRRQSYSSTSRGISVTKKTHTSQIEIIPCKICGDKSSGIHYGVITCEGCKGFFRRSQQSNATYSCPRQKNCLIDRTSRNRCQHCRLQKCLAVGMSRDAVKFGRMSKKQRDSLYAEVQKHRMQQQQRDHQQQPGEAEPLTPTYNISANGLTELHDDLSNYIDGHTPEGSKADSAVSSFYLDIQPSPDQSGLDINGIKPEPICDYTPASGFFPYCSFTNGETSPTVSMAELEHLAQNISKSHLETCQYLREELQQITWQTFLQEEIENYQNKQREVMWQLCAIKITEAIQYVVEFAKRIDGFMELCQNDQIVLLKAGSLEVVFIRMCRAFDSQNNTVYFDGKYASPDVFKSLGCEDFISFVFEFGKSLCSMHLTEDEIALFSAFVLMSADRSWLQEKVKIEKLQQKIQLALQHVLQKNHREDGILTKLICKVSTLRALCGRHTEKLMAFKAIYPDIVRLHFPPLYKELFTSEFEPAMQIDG

[12] = target: T4, Oxysterols receptor LXR-beta (Homo sapiens, UniProt P55055); experiment: Activity at LXRbeta assessed as coactivator peptide interaction with receptor ligand binding domain by scintillation proximity assay
T4 sequence (P55055 whole entry): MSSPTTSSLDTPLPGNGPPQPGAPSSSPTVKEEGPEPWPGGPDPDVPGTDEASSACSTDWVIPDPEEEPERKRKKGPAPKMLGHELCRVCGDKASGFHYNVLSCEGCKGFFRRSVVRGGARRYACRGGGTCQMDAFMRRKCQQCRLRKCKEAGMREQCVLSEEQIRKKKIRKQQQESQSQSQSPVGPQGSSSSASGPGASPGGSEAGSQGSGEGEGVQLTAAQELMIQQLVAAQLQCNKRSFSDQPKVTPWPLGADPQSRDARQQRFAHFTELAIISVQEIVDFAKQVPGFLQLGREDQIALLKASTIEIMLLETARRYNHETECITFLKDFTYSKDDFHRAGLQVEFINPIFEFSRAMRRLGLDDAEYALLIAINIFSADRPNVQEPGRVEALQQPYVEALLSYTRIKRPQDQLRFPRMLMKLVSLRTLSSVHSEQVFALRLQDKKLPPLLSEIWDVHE

[13] = target: T5, Nuclear receptor subfamily 5 group A member 2 (Homo sapiens, UniProt O00482); experiment: Activity at LRH assessed as coactivator peptide interaction with receptor ligand binding domain by FRET assay
T5 sequence (O00482 whole entry, the tested form may be a part): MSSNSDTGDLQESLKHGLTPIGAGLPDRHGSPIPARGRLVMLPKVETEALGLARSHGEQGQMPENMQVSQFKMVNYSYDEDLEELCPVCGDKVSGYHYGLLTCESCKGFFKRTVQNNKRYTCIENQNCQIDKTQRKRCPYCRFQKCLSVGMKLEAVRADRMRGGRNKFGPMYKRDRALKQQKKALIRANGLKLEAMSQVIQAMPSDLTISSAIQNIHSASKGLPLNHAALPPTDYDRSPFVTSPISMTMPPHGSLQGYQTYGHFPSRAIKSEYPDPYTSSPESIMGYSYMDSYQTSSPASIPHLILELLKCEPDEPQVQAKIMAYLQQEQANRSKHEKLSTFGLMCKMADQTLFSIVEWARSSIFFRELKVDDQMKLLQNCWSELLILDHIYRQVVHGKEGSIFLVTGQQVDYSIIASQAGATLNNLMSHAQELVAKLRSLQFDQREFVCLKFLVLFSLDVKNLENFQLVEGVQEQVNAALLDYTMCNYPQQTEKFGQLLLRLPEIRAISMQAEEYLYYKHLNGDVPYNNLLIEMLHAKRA

[14] = Selectivity ratio of XC50 for LRH to EC50 for human FXR
[15] = Selectivity ratio of XC50 for LXRalpha to EC50 for human FXR
[16] = target: T6, PXR (Nuclear receptor subfamily 1 group I member 2) (Homo sapiens, UniProt O75469); experiment: Activity at PXR assessed as coactivator peptide interaction with receptor ligand binding domain by scintillation proximity assay relative to standard control; conditions: read-out: %max
T6 sequence (O75469 whole entry): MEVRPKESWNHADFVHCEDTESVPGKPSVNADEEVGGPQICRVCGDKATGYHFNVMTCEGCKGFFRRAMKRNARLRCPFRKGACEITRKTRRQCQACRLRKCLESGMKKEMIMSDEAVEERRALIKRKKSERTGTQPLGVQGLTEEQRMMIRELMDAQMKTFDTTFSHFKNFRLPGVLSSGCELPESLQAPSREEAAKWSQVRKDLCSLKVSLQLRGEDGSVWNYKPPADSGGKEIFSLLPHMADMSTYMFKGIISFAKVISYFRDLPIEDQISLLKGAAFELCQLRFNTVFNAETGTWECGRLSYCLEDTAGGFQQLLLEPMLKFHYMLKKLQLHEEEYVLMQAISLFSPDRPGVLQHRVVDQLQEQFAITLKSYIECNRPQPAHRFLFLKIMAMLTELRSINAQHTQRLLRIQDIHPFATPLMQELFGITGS

[17] = target: T7, Oxysterols receptor LXR-beta (Homo sapiens) (UniProt P55055); experiment: Activity at LXRbeta assessed as coactivator peptide interaction with receptor ligand binding domain by scintillation proximity assay relative to standard control
T7 sequence (whole entry): T4 sequence (P55055 whole entry)

[18] = target: T6, PXR (Nuclear receptor subfamily 1 group I member 2); experiment: Activity at PXR assessed as coactivator peptide interaction with receptor ligand binding domain by scintillation proximity assay
[19] = target: T5, Nuclear receptor subfamily 5 group A member 2; experiment: Activity at LRH assessed as coactivator peptide interaction with receptor ligand binding domain by FRET assay relative to standard control
[20] = Selectivity ratio of XC50 for RORalpha to EC50 for human FXR
[21] = target: T8, Oxysterols receptor LXR-alpha (Homo sapiens, UniProt Q13133); experiment: Activity at LXRalpha assessed as coactivator peptide interaction with receptor ligand binding domain by FRET assay
T8 sequence (Q13133 whole entry): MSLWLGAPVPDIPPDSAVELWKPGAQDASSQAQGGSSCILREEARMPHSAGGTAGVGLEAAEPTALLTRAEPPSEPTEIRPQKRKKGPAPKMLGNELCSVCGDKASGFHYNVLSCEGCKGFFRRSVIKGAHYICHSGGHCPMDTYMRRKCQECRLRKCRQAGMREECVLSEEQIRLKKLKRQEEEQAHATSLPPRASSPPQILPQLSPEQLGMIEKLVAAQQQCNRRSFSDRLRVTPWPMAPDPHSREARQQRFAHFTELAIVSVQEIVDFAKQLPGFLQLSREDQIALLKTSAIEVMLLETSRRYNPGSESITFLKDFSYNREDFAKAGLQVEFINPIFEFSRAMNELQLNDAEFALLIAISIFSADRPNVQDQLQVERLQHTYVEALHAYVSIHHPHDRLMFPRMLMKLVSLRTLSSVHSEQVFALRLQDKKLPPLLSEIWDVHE

[22] = Selectivity ratio of XC50 for LXRbeta to EC50 for human FXR
[23] = target: T9, Oxysterols receptor LXR-alpha (Homo sapiens) (UniProt Q13133); experiment: Activity at LXRalpha assessed as coactivator peptide interaction with receptor ligand binding domain by FRET assay relative to standard control
T9 sequence (whole entry): T8 sequence (Q13133 whole entry)

half-life [1] | clearance [2] | %max [3] | EC50 (Bile acid receptor [4]) | bioavailability [6] | Vd [7] | %max [8] | EC50 (Bile acid receptor [9]) | SMILES | other results
140 min | 15 mL/min/kg | 56% | 87 nM | 1.9% | 1.4 L/kg | 112% | – | CC(C)c1onc(COc2c(Cl)cc(F)cc2Cl)c1COc1ccc(/C=C/c2cccc(C(=O)O)c2)c(Cl)c1 | EC50 (Bile acid receptor [5]): 540 nM
130 min | 20 mL/min/kg | 89% | 78 nM | 9.2% | 1.2 L/kg | 102% | 89 nM | CC(C)c1onc(COc2c(Cl)cccc2Cl)c1COc1ccc(/C=C/c2cccc(C(=O)O)c2)c(Cl)c1 | –
52 min | 48 mL/min/kg | 88% | 150 nM | 7.8% | 1.1 L/kg | 97% | 52 nM | CC(C)c1onc(-c2c(Cl)cncc2Cl)c1COc1ccc(/C=C/c2cccc(C(=O)O)c2)c(Cl)c1 | –
– | – | 100% | 28 nM | – | – | 110% | 72 nM | CC(C)c1onc(C[S+]([O-])c2c(Cl)cccc2Cl)c1COc1ccc(/C=C/c2cccc(C(=O)O)c2)c(Cl)c1 (configuration not stated) | Ratio [10]: 100; XC50 [11]: > 10 µM; XC50 [12]: 2500 nM; XC50 [13]: 4.2 µM; Ratio [14]: 100; Ratio [15]: 100; Emax [16]: 100%; %max [17]: 101%; XC50 [18]: 960 nM; %max [19]: 46%; Ratio [20]: 100; XC50 [21]: 1400 nM; Ratio [22]: 100; %max [23]: 33%

Source: ChEMBL document CHEMBL1136905, “Substituted isoxazole analogs of farnesoid X receptor (FXR) agonist GW4064” (Bioorg Med Chem Lett, 2009)
